The values below come from patent publication EP4559898A1, “NOVEL IONIZABLE CATIONIC LIPIDS CONTAINING THIOETHER LINKAGE” (AldexChem Kft., priority 2023, dated 2025).

Molecules are shown by their SMILES.

The nature of data set [1]: Size, PDI and Zeta potential of LNPs by dynamic light scattering. Type of data set: physicochemical. To be noted: LNP formulated with tested lipid, diluted in 1x PBS pH 7.4; for Size: DOTAP, DOPE, Resveratrol, DSPE-PEG and mRNA, dialyzed; for Size / PDI: DLS. The method, then: • 1. If needed, prepare stock solutions by solving known amounts of lipid powder into an appropriate solvent. The recommended solvent is ethanol and the recommended concentration is typically in the range 10-50 mM. Higher concentrations are preferred to allow flexibility on mRNA-LNP concentration. • 2. Remove the lipid stock solutions from the -20°C freezer. For long-term storage, -80°C is used. • 3. Check the vials for precipitation, DOPE (CAS# 4004-05-1) (20 mM) and DSPE-PEG (CAS# 474922-26-4) (5mM) may need a 5-30 minute incubation step at 37°C with intermittent vortexing to resuspend all contents. […] As a last resort, lipids may be heated to 50°C to resuspend, time should be kept as short as possible to prevent oxidation or other modifying or degradative processes. • 4. Mix the lipids by vortexing for 2 minutes. • 5. […] Cooling the solution prevent excessive evaporation of ethanol or similar solvents upon opening. • 6. Meanwhile, thaw the RNA samples, including the latest SecNLuc control, by inserting the frozen tube in a room temperature aluminium block. • 7. Prepare for each LNP-formulation with identical mRNA component, an RNA master mix according to Table 1 below in a fresh tube. Use of a master mix allows more precise comparison of lipid formulations relative to each other. Split the master mix over a number of fresh tubes equal to the number of samples + controls. Each tube contains 375 µl of mRNA in 10 mM Citrate pH 4.0. • 8. Prepare for each LNP formulation with identical lipid composition a Lipid master mix according to Table 1 below in a fresh tube, exclude the lipid of interest. Use of a master mix allows more precise comparison of the novel ionizable lipid relative to each other. Split the master mix over a number of fresh tubes equal to the number of samples + controls. Each tube contains 65.5 µl of lipid master mix. • 9. Add the ionizable lipid of interest to the equally divide lipid master mix. Mix well by pipetting up and down. Label the tube according to the ionizable lipid used. • 10. Power on the L1 FM (L1 Formulation Machine uses 2 high-speed syringe pumps to mix lipids in organic solvents with mRNA in acidic aqeuous solution to generate well-defined LNPs. The microfluidic mixing chip involves a dean-type structure performing the high-efficiency mixing at a total flow rate (TFR) of around 12ml/min at a 3:1 mixing ratio) and allow it to do a calibration of motor positions. Table 1: Lipid formulation solution
• 18. Fill a fresh syringe (C) through a blunt 18G stainless steel needle with the previously prepared RNA mixture of step 6. The volume should be approximately 85% of total formulation volume + 25 µl (dead-volume). Make sure to remove all air bubbles by tapping. • 19. Fill a fresh syringe (D) through a blunt 18G stainless steel needle with the Lipid master mix. The volume should be approximately […] of total formulation volume + 25 µl (dead-volume). Again, Make sure to remove all bubbles. • 20. Attach the syringes in the correct orientation, […] • 21. Load the 'Receiving station' with appropriate sized collection containers (2 ml Eppendorf tubes). • 22. Press the microfluidic chip to the back of the machine with your thumb and hold, press the 'Button 1' (40 µg). The L1 FM pushes the total volume from the syringes in a perfect 3:1 (mRNA aqueous: lipid in EtOH) ratio through the microfluidic mixer chip with a total flow-rate of […] (Total flow rate (TFR)). • 23. Remove the sample tube from the 'Receiving station' and label the tube accordingly. • 24. Reset the machine to prepare with the next formulation.
• 25. Transfer the individual formulations to 100 kda MWCO, SpectraPor Biotech dialysis tubing, and close with designated clamps. • 26. Submerge the dialysis bags in beakers filled with 1x Phosphate-buffered saline (PBS buffer, pH 7.4, Gibco cat# 202212-019), stir at 230 RPM at room temperature. • 27. […]

Data set [2] in a line: Encapsulation efficiency (RiboGreen assay) of mRNA-LNPs. To be noted: mRNA-LNP formulated with tested lipid; RiboGreen with/without Triton X-100. The data set is classed as physicochemical. The method, then:
1. Preparation of sample stock solutions: In the top row of the 96-well plate (Row A in the plate), add 297 µL of TE buffer pH 7.4 to a single well for each sample plus a single well for a PBS blank using a multichannel pipette. TE buffer preparation:
2. Add 3 µL of sample (at 0.5mg/ml) to these wells for a final volume of 300 µL. Add 3 µL of PBS to the blank well. Pipette to mix. This is your stock solution for each sample. The final RNA concentration of these stock solutions should be approximately 4-7 µg/mL. 3. mRNA-LNP sample setup: • a. Add 50 µL of TE buffer pH 7.5 to the two wells directly below each sample (Rows B and C in the plate). • b. Add 50 µL of sample stock solution from Row A into the wells in Rows B and C (this assay is run in duplicate. All liquid handling should be done using a multichannel pipette). • c. Add 50 µL of Triton buffer to the wells in Rows D and E (in the plate) below each sample. • d. Add 50 µL of sample stock solution from Row A into the wells in Rows D and E. 4. RiboGreen RNA standard curve setup: Dilute the RNA standard to produce an RNA stock at a final concentration of 20 µg/mL in TE buffer pH 7.4. The final volume should be 150 µL. Set up a standard curve (in duplicate) as using the RNA stock (20 µg/mL siRNA), TE buffer pH 7.5, and Triton X-100 buffer according the Table 2 below. Triton X-100 buffer preparation:
5. Once samples and standard curve are plated, incubate the plate at 37°C for 10 min to lyse mRNA-LNP in the presence of Triton X-100 buffer. 6. Meanwhile, prepare RiboGreen Solution: Sum the total number of sample wells and standard curve wells. Add three to this number, and multiply the total by 100. This is the total volume, in µL, of RiboGreen Solution needed for this assay. In a 15 mL RNAse-free Falcon tube, dilute the RiboGreen Reagent 1:100 into TE buffer pH 7.5 to the total volume calculated. 7. Addition of RiboGreen Solution and sample readings: Remove a 96-well plate from 37°C incubator; let it cool to room temperature as RiboGreen binding is somewhat temperature dependent. Add 100 µL of RiboGreen Solution to each well. Pop any air bubbles with a needle. Read using fluorescent plate reader (excitation = 480, emission = 525). 8. Sample analysis: Use the data generated by the RiboGreen standard curve to calculate the concentration of mRNA.

For the compound `CCCCCCCCCCSC(CCCC)C(=O)OCCCCCCN(CCCCCCOC(=O)C(CCCC)SCCCCCCCCCC)CCC1CCCN1C` (centres unmarked) [Example 5, ((2-(1-methylpyrrolidin-2-yl)ethyl)azanediyl)bis(hexane-6,1-diyl) bis(2-(decylthio)hexanoate)], in data set [1], the Size is recorded as 291,8 nm, the Zeta potential was -9,117 mV and the PDI was 0,169. This compound also showed an EE in data set [2] of 96%.

With `CCCCCCCCCCCCCCSCC(=O)OCCCCCCN(CCCCO)CCCCCCOC(=O)CSCCCCCCCCCCCCCC` [Example 10, ((4-hydroxybutyl)azanediyl)bis(hexane-6,1-diyl) bis(2-(tetradecylthio)acetate)], in data set [1], the Size is reported as 203,9 nm, the Zeta potential is reported as -9,983 mV and the PDI is recorded as 0,014. Moreover, in data set [2], the EE was found to be 83%.

Consider `CCCCCCCSC(CCCCCC)C(=O)OCCCCCCN(CCCCO)CCCCCCOC(=O)C(CCCCCC)SCCCCCCC` (centres unmarked) [Example 9, ((4-hydroxybutyl)azanediyl)bis(hexane-6,1-diyl) bis(2-(heptylthio)octanoate)], for which, in data set [1], the Size is given as 167,3 nm, the Zeta potential is reported as -13,37 mV and the PDI is 0,144. In data set [2], this compound returned an EE of 67%.

Turning to `CCCCCCCCCCSC(CCCCCCCC)C(=O)OCCCCCCN(CCCCO)CCCCCCOC(=O)C(CCCCCCCC)SCCCCCCCCCC` (centres unmarked) [Example 7, ((4-hydroxybutyl)azanediyl)bis(hexane-6,1-diyl) bis(2-(decylthio)decanoate)], in data set [1], the Size was 152,7 nm, the Zeta potential was -15,85 mV and the PDI is given as 0,022. In addition, the EE in data set [2] is given as 92%.

With `CCCCCCCCCCSC(CCCCCC)C(=O)OCCCCCCN(CCCCO)CCCCCCOC(=O)C(CCCCCC)SCCCCCCCCCC` (centres unmarked) [Example 8, ((4-hydroxybutyl)azanediyl)bis(hexane-6,1-diyl) bis(2-(decylthio)octanoate)], in data set [1], the Size is recorded as 153,5 nm, the Zeta potential is listed as -14,32 mV and the PDI is recorded as 0,038. For the same compound, the EE in data set [2] was 86%.

For the compound `CCCCCCCCC(SCCCCC)C(=O)OCCCCCCN(CCCCO)CCCCCCOC(=O)C(CCCCCCCC)SCCCCC` (centres unmarked) [Example 2, ((4-hydroxybutyl)azanediyl)bis(hexane-6,1-diyl) bis(2-(pentylthio)decanoate)], in data set [1], the Size is reported as 188,2 nm, the Zeta potential was -11,48 mV and the PDI is reported as 0,136. In data set [2], the EE was determined as 55%.

As to `CCCCCCCCCCSC(CCCC)C(=O)OCCCCCCCCN(CCCCO)CCCCCCCCOC(=O)C(CCCC)SCCCCCCCCCC` (centres unmarked) [Example 3, ((4-hydroxybutyl)azanediyl)bis(octane-8,1-diyl) bis(2-(decylthio)hexanoate)], in data set [1], the Size is given as 185,7 nm, the Zeta potential is -9,667 mV and the PDI was 0,122. The EE in data set [2] is on record as 77%.

For `CCCCCCCCC(CCCCCC)C(=O)OCCCCCCN(CCCCO)CCCCCCOC(=O)C(CCCCCC)CCCCCCCC` (centres unmarked) [ALC-0315 ref., reference compound], in data set [1], the Size was 131,9 nm, the Zeta potential is -12,32 mV and the PDI was 0,007. In data set [2], this compound showed an EE of 94%.

With `CCCCCCCCCCSC(CCCC)C(=O)OCCCCCCN(CCO)CCCCCCOC(=O)C(CCCC)SCCCCCCCCCC` (centres unmarked) [Example 4, ((2-hydroxyethyl)azanediyl)bis(hexane-6,1-diyl) bis(2-(decylthio)hexanoate)], in data set [1], the Size is 149,7 nm, the Zeta potential was -12,66 mV and the PDI was 0,071. The compound further had an EE in data set [2] of 85%.

For the compound `CCCCCCCCCCSC(CCCC)C(=O)OCCCCCCN(CCCCO)CCCCCCOC(=O)C(CCCC)SCCCCCCCCCC` (centres unmarked) [Example 1, ((4-hydroxybutyl)azanediyl)bis(hexane-6,1-diyl) bis(2-(decylthio)hexanoate)], in data set [1], the Size is 226,7 nm, the Zeta potential is on record as -10,74 mV and the PDI is 0,223. Further, the EE in data set [2] amounted to 53%.

For `CCCCCCCCC(SCCCCCCC)C(=O)OCCCCCCN(CCCCO)CCCCCCOC(=O)C(CCCCCCCC)SCCCCCCC` (centres unmarked) [Example 6, ((4-hydroxybutyl)azanediyl)bis(hexane-6,1-diyl) bis(2-(heptylthio)decanoate)], in data set [1], the Size is 126,0 nm, the Zeta potential was -11,48 mV and the PDI was 0,013. In data set [2], the EE stood at 90%.
